System: biofilm extracellular matrix
Assay: dose dependent extracellular matrix degradation of the enzymes mutanase and dextranase (FIG. 4)
Assay type: cell-based
Conditions: combination of mutanase and dextranase
Source text: FIG. 4 depicts the dose dependent extracellular matrix degradation of the enzymes mutanase and dextranase.
FIG. 4 depicts the dose dependent extracellular matrix degradation of the enzymes mutanase and dextranase in accordance with an embodiment of disclosed subject matter. While the catalytic function of iron oxide nanoparticles degrades the biofilm matrix more slowly than it substantially eradicates the bacteria, the rate of degradation can be enhanced with enzymes including mutanase and dextranase. A combination of 1.75 U mutanase and 8.75 U dextranase achieves maximal efficacy for extracellular matrix degradation.

Substance	amount that achieves maximal efficacy for extracellular matrix degradation [U]
dextranase	8.75
mutanase	1.75

Reference: patent US12433295B2, “Small-scale robots for biofilm eradication” (THE TRUSTEES OF THE UNIVERSITY OF PENNSYLVANIA, priority 2018, dated 2025)
